This assay has as its target Neuronal acetylcholine receptor subunit alpha-4 (Rattus norvegicus, UniProt P09483).

Neuronal acetylcholine receptor subunit alpha-4, sequence (P09483 whole entry): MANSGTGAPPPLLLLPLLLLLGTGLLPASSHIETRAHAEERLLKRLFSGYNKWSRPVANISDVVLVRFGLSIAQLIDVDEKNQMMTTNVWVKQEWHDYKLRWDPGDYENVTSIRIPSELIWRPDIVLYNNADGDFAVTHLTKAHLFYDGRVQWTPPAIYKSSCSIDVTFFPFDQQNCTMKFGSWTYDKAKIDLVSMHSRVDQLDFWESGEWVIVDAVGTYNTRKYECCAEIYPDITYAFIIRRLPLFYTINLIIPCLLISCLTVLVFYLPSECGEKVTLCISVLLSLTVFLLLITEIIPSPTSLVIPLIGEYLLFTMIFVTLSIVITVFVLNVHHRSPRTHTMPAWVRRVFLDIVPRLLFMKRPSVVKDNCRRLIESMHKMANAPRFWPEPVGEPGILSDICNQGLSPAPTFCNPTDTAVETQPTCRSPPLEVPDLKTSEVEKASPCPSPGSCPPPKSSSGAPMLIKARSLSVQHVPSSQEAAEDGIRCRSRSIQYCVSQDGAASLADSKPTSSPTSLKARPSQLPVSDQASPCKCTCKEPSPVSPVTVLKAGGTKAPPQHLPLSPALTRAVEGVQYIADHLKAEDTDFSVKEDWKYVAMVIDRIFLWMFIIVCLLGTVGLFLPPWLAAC

A word on the Ki: it is a measure of affinity in units of concentration, obtained from inhibition or displacement. The low end stands for tighter binding, the high end for weaker binding. Turning to `Clc1ccc(OC[C@@H]2CCN2)cn1`, the Ki was 30 pM.

Source of the values: BindingDB's records for doi:10.1126/science.279.5347.77 (Abbott Laboratories, 1998).
